Reference: article PMC10041525, “New Dual Inhibitors of Bacterial Topoisomerases with Broad-Spectrum Antibacterial Activity and In Vivo Efficacy against Vancomycin-Intermediate Staphylococcus aureus” (Journal of Medicinal Chemistry, 2023)
In brackets after ≈: the same amount, converted by molar mass. Where two headings read alike, the source gives them in different places.

Assays:
[1] = tested on: P. aeruginosa PAO1, PAO750; assay: MIC, wild-type vs efflux-defective; format: cell-based; conditions: Pseudomonas aeruginosa
[2] = mitochondrial toxicity glu/gal assay; format: cell-based; conditions: human, read-out: cell viability (ATP), % of control
Experimental: (§1) HepG2 cells were seeded in two 96-well plates at a density of 50,000 cells per well in 100 μL of growth medium. For the first plate, the growth medium contained glucose and for the second plate, it contained galactose. Cells were incubated overnight in a 5% CO2 atmosphere at 37 °C and allowed to attach onto the wells. […] The medium contained positive control (Rotenone). […] Luminescence was measured with Tecan Infinite 200 pro luminometer, and the values from each well treated with compound were compared to the values given by the negative control (medium only). The inhibition of mitochondrial function was determined by comparing ATP levels in galactose and glucose exposed cells. […]

[3] = tested on: HepG2 cells; assay: mitochondrial toxicity glu/gal assay; format: cell-based; conditions: human
Experimental: as §1

[4] = molecular target: T1, hERG channel (Homo sapiens, UniProt Q12809); assay: whole-cell patch-clamp on HEK293 cells; format: cell-based; conditions: 50 µM 7a, mean ± SD
T1 construct: expressed in transfected cells; host or cells: HEK293 cells stably expressing the channel
Description: hERG inhibition was additionally determined in whole-cell patch-clamp experiments on HEK293 cells stably expressing the channel, as previously described.[55]

[5] = in vivo pharmacokinetics, IV; set-up: species or system male CD-1 mice
Experimental: The in vivo pharmacokinetic studies of 7a were performed by Selvita d.o.o. (Zagreb, Croatia) in male CD-1 mice (Charles River). The test compound was administered via intravenous (iv) bolus at a dose of 1 mg/kg (dose volume 5 mL/kg). Blood samples were collected from the tail vein 0.05, 0.25, 0.5, 1.0, 2.0, 4.0, 8.0, and 24 h after administration from three animals per time point. Each animal was sampled 2–4 times throughout the time course of collection (six animals were used totally per each route). Blood samples were centrifuged at 1560g for 10 min at 4 °C. The samples were analyzed by LC–MS/MS. Prior to analysis, the samples were prepared by protein precipitation {20 μL of plasma + 20 μL of water + 240 μL of extraction solvent [acetonitrile/methanol (2:1 v/v) with 100 ng/mL diclofenac (IS)]}, and the extracts were diluted with water (1:3 v/v).
For LC–MS/MS analysis, a Shimadzu prominence HPLC system was used (HPLC pump: LC30AD, autosampler: SIL30ACMP, column oven: CTO30A) connected to an Applied Biosystems mass spectrometer (QTRAP 5500) operating in the positive TurboIonSpray mode. For separation, a Waters Acquity UPLC BEH C18 1.7 μm, 2.1 × 50 mm (Waters, Milford, MA) column was used, with an injection volume of 1 or 2 μL and a flow rate of 0.5 mL/min. The mobile phase consisted of 0.1% formic acid in water (solvent A) and 0.1% formic acid in acetonitrile (solvent B). Gradient: 0–0.05 min, 5% B; 0.05–0.80 min, 5–85% B; 0.80–1.00, 85% B; 1.00–1.01, 85–95% B; 1.01–1.50, 95% B; 1.50–1.51, 95–5% B, 1.51–2.00, 5% B.
Pharmacokinetic analysis was performed using WinNonlin Phoenix software (Certara, version 8.3) from the mean animal plasma concentration per group, per time point, non-compartmental analysis, and the target dose.

[6] = physchem; conditions: pH 7.4
Experimental: 0.5 mL of 67 mM phosphate
in a rotational shaker (400 rpm) at 23 °C. After the incubation an aliquot of 200 µL was
1 µL of the supernatant was transferred to 96-well plate in triplicate wells, diluted 100×
with acetonitrile/H2O (60/40) containing 50 nM warfarin as internal standard and analyzed
performed comparing to a separately constructed standard series (10 nM to 1000 nM).
shaker (900 rpm) at 37 °C. After the incubation an aliquot of 200 µL was transferred to a
conical glass insert and centrifuged for 30 min at 10 000 × g at 37 °C. The supernatant was
transferred to a new HPLC vial appropriately diluted (100×, 1000×, 5000×) with
acetonitrile/H2O (50/50) containing 50 nM warfarin as internal standard and analyzed by
performed comparing to a separately constructed standard curve between 3 nM to 20000

[7] = tested on: Chinese hamster ovary K1 cells; assay: in vitro micronucleus test
[8] = molecular target: A. baumannii topo IV (Acinetobacter baumannii, UniProt A0ABX6CMT0); assay: gel-based decatenation assay
Experimental: In all experiments, the activity of the
enzymes was determined prior to the testing of the compound and 1 unit (U) was defined as the
amount of enzyme required to just fully supercoil or decatenate the substrate. This amount of
enzyme was initially used in determination of control inhibitor activity. These experiments were
performed in duplicate. […] The final DMSO
concentration was 1% for all assays. All measurements were performed in quadruplicates. The
condition for each reaction were as follows:
− S. aureus gyrase supercoiling assay
1 U of S. aureus gyrase was incubated with 0.5 µg of relaxed pBR322 DNA in a 30 µL reaction at
magnesium acetate, 10 mM DTT, 2 mM ATP, 500 mM potassium glutamate and 0.05 mg/mL
− S. aureus topo IV decatenation assay
1 U of S. aureus topo IV was incubated with 20 µg kDNA in a 30 µL reaction at 37 °C for 30
mM ATP, 350 mM potassium glutamate and 0.05 mg/mL albumin.
− A. baumannii gyrase supercoiling assay
1 U of A. baumannii gyrase was incubated with 0.5 µg of relaxed pBR322 DNA in a 30 µL reaction
blue), before being loaded on a 1.0% TAE gel run at 80V for 2 hours. Bands were visualised by
ethidium bromide staining for 20 minutes and destaining for 20 minutes. Gels were scanned using
documentation equipment (GeneGenius, Syngene, Cambridge, UK) and % inhibition levels were
measured by determining the relative fluorescence of the supercoiled band using gel scanning
software. […]

[9] = male, CD-1, mouse, plasma, IV 1 mg/kg

T1 sequence (Q12809 whole entry): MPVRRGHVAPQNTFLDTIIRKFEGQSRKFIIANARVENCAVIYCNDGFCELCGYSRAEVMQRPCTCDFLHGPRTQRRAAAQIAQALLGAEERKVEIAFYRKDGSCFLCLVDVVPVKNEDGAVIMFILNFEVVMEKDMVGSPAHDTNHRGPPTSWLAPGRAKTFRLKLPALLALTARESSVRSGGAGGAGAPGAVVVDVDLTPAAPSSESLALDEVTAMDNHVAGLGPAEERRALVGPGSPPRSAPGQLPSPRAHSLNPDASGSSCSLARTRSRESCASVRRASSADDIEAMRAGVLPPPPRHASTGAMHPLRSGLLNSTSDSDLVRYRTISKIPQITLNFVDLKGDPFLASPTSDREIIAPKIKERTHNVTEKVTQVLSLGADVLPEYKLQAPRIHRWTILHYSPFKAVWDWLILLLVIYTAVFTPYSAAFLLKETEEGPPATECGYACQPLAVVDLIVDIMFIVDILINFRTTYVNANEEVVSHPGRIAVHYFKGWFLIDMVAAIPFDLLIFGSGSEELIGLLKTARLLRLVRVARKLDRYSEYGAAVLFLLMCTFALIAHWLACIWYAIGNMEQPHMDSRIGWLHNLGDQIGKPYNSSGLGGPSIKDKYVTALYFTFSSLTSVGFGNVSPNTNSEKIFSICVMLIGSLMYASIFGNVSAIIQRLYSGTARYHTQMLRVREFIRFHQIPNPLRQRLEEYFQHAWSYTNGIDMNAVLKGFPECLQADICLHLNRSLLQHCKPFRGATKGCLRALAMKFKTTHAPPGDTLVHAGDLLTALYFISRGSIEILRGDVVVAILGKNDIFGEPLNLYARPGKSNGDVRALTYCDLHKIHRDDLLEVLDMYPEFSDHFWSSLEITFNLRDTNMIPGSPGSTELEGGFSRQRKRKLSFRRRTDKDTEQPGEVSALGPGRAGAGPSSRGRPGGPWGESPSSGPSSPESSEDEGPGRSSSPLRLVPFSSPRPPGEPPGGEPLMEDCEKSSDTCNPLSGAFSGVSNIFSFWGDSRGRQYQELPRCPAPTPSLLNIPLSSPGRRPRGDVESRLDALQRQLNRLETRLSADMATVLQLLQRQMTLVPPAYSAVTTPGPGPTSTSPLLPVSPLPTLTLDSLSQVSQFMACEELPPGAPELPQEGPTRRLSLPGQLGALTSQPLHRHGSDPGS

Q: Which MIC ([1]; PAO1, P. aeruginosa PAO1) does the source give for `Cc1[nH]c(C(=O)Nc2nc3c(N4CCOCC4)cc(C(=O)O)cc3s2)c(Cl)c1Cl` [7a, 2-(3,4-Dichloro-5-methyl-1H-pyrrole-2-carboxamido)-4-morpholinobenzo[d]thiazole-6-carboxylic Acid] here?
A: The MIC was > 64 µg/mL.

Q: What about the MIC ([1]; PAO1, P. aeruginosa PAO750, efflux-defective) of the same compound?
A: The MIC was 0.25 µg/mL (≈ 0.549 µM).

Q: And the viability at 10 µM ([2]; galactose)?
A: Its viability at 10 µM is 98%.

Q: And the viability at 50 µM ([2]; galactose)?
A: The viability at 50 µM was 98%.

Q: What about the viability at 100 µM ([2]; galactose) of the same compound?
A: Its viability at 100 µM is 97%.

Q: And the viability at 300 µM ([2]; galactose)?
A: Its viability at 300 µM is 98%.

Q: And the viability at 600 µM ([2]; galactose)?
A: The viability at 600 µM was 94%.

Q: What about the viability at 1000 µM ([2]; galactose) of the same compound?
A: Its viability at 1000 µM is 83%.

Q: What about the viability at 10 µM ([2]; glucose) of the same compound?
A: Its viability at 10 µM is 109%.

Q: And the viability at 50 µM ([2]; glucose)?
A: The viability at 50 µM was 107%.

Q: And the viability at 100 µM ([2]; glucose)?
A: The viability at 100 µM was 105%.

Q: And the viability at 300 µM ([2]; glucose)?
A: Its viability at 300 µM is 99%.

Q: And the viability at 600 µM ([2]; glucose)?
A: The viability at 600 µM was 95%.

Q: And the viability at 1000 µM ([2]; glucose)?
A: Its viability at 1000 µM is 79%.

Q: And the “mitotoxic concentration (not mitotoxic up to)” value [3]?
A: Its value is > 1000 µM.

Q: What about the “hERG inhibition (current reduction)” value [4] of the same compound?
A: Its value is 0 ± 12%.

Q: And the “plasma clearance as % of liver blood flow” value ([5]; assuming 90 mL/min/kg)?
A: The value was 61%.

Q: And the AUC(0-inf) at 24 h [5, 9]?
A: Its AUC(0-inf) at 24 h is 304 ng·h/mL.

Q: And the C0 at 24 h [5, 9]?
A: The C0 at 24 h was 913 ng/mL.

Q: And the clearance at 24 h [5, 9]?
A: The clearance at 24 h was 54.8 mL/min/kg.

Q: And the half-life at 24 h [5, 9]?
A: The half-life at 24 h was 1 h.

Q: And the AUC(0-t) at 24 h ([5]; male, CD-1, mouse, plasma, IV 1 mg/kg, read-out: AUC0–24h)?
A: Its AUC(0-t) at 24 h is 303 ng·h/mL.

Q: What about the Vd at 24 h ([5]; male, CD-1, mouse, plasma, IV 1 mg/kg, read-out: Vss) of the same compound?
A: The Vd at 24 h was 2.3 L/kg.

Q: What about the solubility thermodynamic at 24 h [6] of the same compound?
A: Its solubility thermodynamic at 24 h is 168 µM (≈ 76.5 µg/mL).

Q: What about the “% Micronuclei” value ([7]; with S9, 25 µM) of the same compound?
A: The value was 2.7%.

Q: What about the No. binucleate cells ([7]; with S9, 25 µM) of the same compound?
A: Its No. binucleate cells is 1707.

Q: What about the “% Cytostasis” value ([7]; with S9, 50 µM) of the same compound?
A: The value was 1.4%.

Q: What about the “% Micronuclei” value ([7]; with S9, 50 µM) of the same compound?
A: Its value is 4.5%.

Q: What about the No. binucleate cells ([7]; with S9, 50 µM) of the same compound?
A: Its No. binucleate cells is 1296.

Q: What about the “% Cytostasis” value ([7]; with S9, 100 µM) of the same compound?
A: Its value is “tox”.

Q: And the “genotoxic concentration (no genotoxicity up to)” value ([7]; with S9 activation)?
A: The value was > 50 µM.

Q: And the “% Micronuclei” value ([7]; without S9, 6.25 µM)?
A: Its value is 2.8%.

Q: What about the No. binucleate cells ([7]; without S9, 6.25 µM) of the same compound?
A: The No. binucleate cells was 3160.

Q: What about the “% Micronuclei” value ([7]; without S9, 25 µM) of the same compound?
A: The value was 2.5%.

Q: And the No. binucleate cells ([7]; without S9, 25 µM)?
A: Its No. binucleate cells is 2644.

Q: And the “% Cytostasis” value ([7]; without S9, 50 µM)?
A: Its value is 0.1%.

Q: What about the “% Micronuclei” value ([7]; without S9, 50 µM) of the same compound?
A: The value was 4.4%.

Q: And the No. binucleate cells ([7]; without S9, 50 µM)?
A: Its No. binucleate cells is 1687.

Q: And the “% Cytostasis” value ([7]; without S9, 100 µM)?
A: Its value is 40.8%.

Q: And the “% Micronuclei” value ([7]; without S9, 100 µM)?
A: Its value is 7%.

Q: What about the No. binucleate cells ([7]; without S9, 100 µM) of the same compound?
A: Its No. binucleate cells is 642.

Q: What about the “% Micronuclei” value ([7]; without S9, […]) of the same compound?
A: The value was 2.7%.

Q: And the “genotoxic concentration (no genotoxicity up to)” value ([7]; without metabolic activation)?
A: The value was > 100 µM.

Q: And the IC50 [8]?
A: The IC50 was 120 ± 8.34 nM.
